# Measurements published in PMC7403980, “Anti-Inflammatory Effects of the Novel PIM Kinase Inhibitor KMU-470 in RAW 264.7 Cells through the TLR4-NF-κB-NLRP3 Pathway” (International Journal of Molecular Sciences, 2020).
# Tests used:
# BTK (h) = biological target: T1, BTK (h) (Homo sapiens, UniProt Q06187); experiment: Kinase profiling (Eurofins Cerep); format: biochemical; conditions: KMU-470 10 μM; ATP at Km
# T1 construct: purchased Eurofins Cerep S.A. (kinase profiler service)
# Method: (§1) To test the specificity of the novel PIM kinase inhibitor KMU-470, a kinase profiler service was conducted by Eurofins Cerep S.A. The screening was performed with 1 and 10 μM of compound and a concentration of ATP at the Km value for each individual kinase and kinase substrate according to Eurofin’s protocols.
# Blk (h) = biological target: T2, Blk (h) (Homo sapiens, UniProt P51451); experiment: Kinase profiling (Eurofins Cerep); format: biochemical; conditions: ATP at Km
# T2 construct: purchased Eurofins Cerep S.A. (kinase profiler service)
# Method: as §1
# Bmx (h) = biological target: T3, Bmx (h) (Homo sapiens, UniProt P51813); experiment: Kinase profiling (Eurofins Cerep); format: biochemical; conditions: KMU-470 10 μM; ATP at Km
# T3 construct: purchased Eurofins Cerep S.A. (kinase profiler service)
# Method: as §1
# Csrc (h) = biological target: T4, Csrc (h) (Homo sapiens, UniProt P12931); experiment: Kinase profiling (Eurofins Cerep); format: biochemical; conditions: KMU-470 10 μM; ATP at Km
# T4 construct: purchased Eurofins Cerep S.A. (kinase profiler service)
# Method: as §1
# Fgr (h) = biological target: T5, Fgr (h) (Homo sapiens, UniProt P09769); experiment: Kinase profiling (Eurofins Cerep); format: biochemical; conditions: ATP at Km
# T5 construct: purchased Eurofins Cerep S.A. (kinase profiler service)
# Method: as §1
# Fyn (h) = biological target: T6, Fyn (h) (Homo sapiens, UniProt P06241); experiment: Kinase profiling (Eurofins Cerep); format: biochemical; conditions: ATP at Km
# T6 construct: purchased Eurofins Cerep S.A. (kinase profiler service)
# Method: as §1
# Hck (h) = biological target: T7, Hck (h) (Homo sapiens, UniProt P08631); experiment: Kinase profiling (Eurofins Cerep); format: biochemical; conditions: KMU-470 10 μM; ATP at Km
# T7 construct: purchased Eurofins Cerep S.A. (kinase profiler service)
# Method: as §1
# Itk (h) = biological target: T8, Itk (h) (Homo sapiens, UniProt Q08881); experiment: Kinase profiling (Eurofins Cerep); format: biochemical; conditions: ATP at Km
# T8 construct: purchased Eurofins Cerep S.A. (kinase profiler service)
# Method: as §1
# JAK1 (h) = biological target: T9, JAK1 (h) (Homo sapiens, UniProt P23458); experiment: Kinase profiling (Eurofins Cerep); format: biochemical; conditions: ATP at Km
# T9 construct: purchased Eurofins Cerep S.A. (kinase profiler service)
# Method: as §1
# JAK2 (h) = biological target: T10, JAK2 (h) (Homo sapiens, UniProt O60674); experiment: Kinase profiling (Eurofins Cerep); format: biochemical; conditions: ATP at Km
# T10 construct: purchased Eurofins Cerep S.A. (kinase profiler service)
# Method: as §1
# JAK3 (h) = biological target: T11, JAK3 (h) (Homo sapiens, UniProt P52333); experiment: Kinase profiling (Eurofins Cerep); format: biochemical; conditions: ATP at Km
# T11 construct: purchased Eurofins Cerep S.A. (kinase profiler service)
# Method: as §1
# JNK1α1 (h) = biological target: T12, JNK1α1 (h) (Homo sapiens, UniProt P45983); experiment: Kinase profiling (Eurofins Cerep); format: biochemical; conditions: KMU-470 10 μM; ATP at Km
# T12 construct: purchased Eurofins Cerep S.A. (kinase profiler service)
# Method: as §1
# Lck (h) = biological target: T13, Lck (h) (Homo sapiens, UniProt P06239); experiment: Kinase profiling (Eurofins Cerep); format: biochemical; conditions: ATP at Km
# T13 construct: purchased Eurofins Cerep S.A. (kinase profiler service)
# Method: as §1
# Lyn (h) = biological target: T14, Lyn (h) (Homo sapiens, UniProt P07948); experiment: Kinase profiling (Eurofins Cerep); format: biochemical; conditions: ATP at Km
# T14 construct: purchased Eurofins Cerep S.A. (kinase profiler service)
# Method: as §1
# MAPK1 (h) = biological target: T15, MAPK1 (h) (Homo sapiens, UniProt P27361); experiment: Kinase profiling (Eurofins Cerep); format: biochemical; conditions: ATP at Km
# T15 construct: purchased Eurofins Cerep S.A. (kinase profiler service)
# Method: as §1
# Pyk2 (h) = biological target: T16, Pyk2 (h) (Homo sapiens, UniProt Q14289); experiment: Kinase profiling (Eurofins Cerep); format: biochemical; conditions: KMU-470 10 μM; ATP at Km
# T16 construct: purchased Eurofins Cerep S.A. (kinase profiler service)
# Method: as §1
# SAPK2a (h) = biological target: T17, SAPK2a (h) (Homo sapiens, UniProt Q16539); experiment: Kinase profiling (Eurofins Cerep); format: biochemical; conditions: KMU-470 10 μM; ATP at Km
# T17 construct: purchased Eurofins Cerep S.A. (kinase profiler service)
# Method: as §1
# Syk (h) = biological target: T18, Syk (h) (Homo sapiens, UniProt P43405); experiment: Kinase profiling (Eurofins Cerep); format: biochemical; conditions: ATP at Km
# T18 construct: purchased Eurofins Cerep S.A. (kinase profiler service)
# Method: as §1
# TYK2 (h) = biological target: T19, TYK2 (h) (Homo sapiens, UniProt P29597); experiment: Kinase profiling (Eurofins Cerep); format: biochemical; conditions: ATP at Km
# T19 construct: purchased Eurofins Cerep S.A. (kinase profiler service)
# Method: as §1
# Tec (h) activated = biological target: T20, Tec (h) activated (Homo sapiens, UniProt P42680); experiment: Kinase profiling (Eurofins Cerep); format: biochemical; conditions: KMU-470 10 μM; ATP at Km
# T20 construct: purchased Eurofins Cerep S.A. (kinase profiler service)
# Method: as §1
# Txk (h) = biological target: T21, Txk (h) (Homo sapiens, UniProt P42681); experiment: Kinase profiling (Eurofins Cerep); format: biochemical; conditions: KMU-470 10 μM; ATP at Km
# T21 construct: purchased Eurofins Cerep S.A. (kinase profiler service)
# Method: as §1
# Yes (h) = biological target: T22, Yes (h) (Homo sapiens, UniProt P07947); experiment: Kinase profiling (Eurofins Cerep); format: biochemical; conditions: ATP at Km
# T22 construct: purchased Eurofins Cerep S.A. (kinase profiler service)
# Method: as §1
# ZAP-70 (h) = biological target: T23, ZAP-70 (h) (Homo sapiens, UniProt P43403); experiment: Kinase profiling (Eurofins Cerep); format: biochemical; conditions: KMU-470 10 μM; ATP at Km
# T23 construct: purchased Eurofins Cerep S.A. (kinase profiler service)
# Method: as §1
# RAW 264.7 cells = experiment: Toxicity / cell viability in RAW 264.7 cells (microscopy, trypan blue, XTT); format: cell-based, murine; conditions: up to 1 µM, 24 h, trypan blue cell count
# Method: Figure 3 Inhibitory effect of KMU-470 on LPS-induced NO production and iNOS protein expression, and cell viability in RAW 264.7 cells. (A) The cells were pre-treated with KMU-470 at a concentration of 1 μM for 30 min and then treated with different concentrations of LPS for 24 h. Nitrite in the culture supernatant was collected and evaluated using Griess reagent. Absorbance was measured at 540 nm. *** p < 0.001, ** p < 0.01, * p < 0.05. (B) Cells are pre-treated with two different concentrations of KMU-470 (0.5 μM and 1 μM) for 30 min, followed by treatment with 1 μg/mL LPS for 24 h. β-actin was used as an internal control for Western blot analysis. (C) Image-J program was used to analyze the relative optical density of the iNOS band. (D) Cells were treated with various concentrations of KMU-470 for 24 h. The effects of KMU-470 on cell proliferation and morphological changes were observed by microscopy (X100). (E) The cell proliferation rate was determined by cell count using a trypan blue exclusion assay. *p < 0.05 (F) Effect of KMU-470 on cell viability was measured by XTT assay. *** p < 0.001.
# The cell viability assay was performed using a 2,3-bis (2-methoxy-4-nitro-5-sulphonyl)-2H-tetrazolium-5-carboxanilide (XTT) assay (Welgene Inc, Daegu, Korea). […] The optical density (OD) was measured using a microplate reader (BMG Labtech, Ortenberg, Germany) at a 450 nm wavelength. […]
# T13 sequence (P06239 whole entry): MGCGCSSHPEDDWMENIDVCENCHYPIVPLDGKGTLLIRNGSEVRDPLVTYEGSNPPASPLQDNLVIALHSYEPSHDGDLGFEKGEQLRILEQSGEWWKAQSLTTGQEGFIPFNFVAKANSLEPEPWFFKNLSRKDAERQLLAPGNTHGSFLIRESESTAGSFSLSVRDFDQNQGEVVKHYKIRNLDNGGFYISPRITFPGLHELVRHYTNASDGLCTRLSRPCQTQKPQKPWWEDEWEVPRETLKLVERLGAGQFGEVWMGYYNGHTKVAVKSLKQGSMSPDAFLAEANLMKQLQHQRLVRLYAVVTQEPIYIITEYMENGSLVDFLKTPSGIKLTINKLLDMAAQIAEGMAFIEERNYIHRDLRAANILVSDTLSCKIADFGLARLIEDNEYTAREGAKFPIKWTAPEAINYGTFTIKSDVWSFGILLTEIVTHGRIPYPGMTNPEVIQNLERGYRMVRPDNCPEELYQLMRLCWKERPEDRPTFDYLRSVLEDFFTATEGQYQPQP
# T19 sequence (P29597 whole entry): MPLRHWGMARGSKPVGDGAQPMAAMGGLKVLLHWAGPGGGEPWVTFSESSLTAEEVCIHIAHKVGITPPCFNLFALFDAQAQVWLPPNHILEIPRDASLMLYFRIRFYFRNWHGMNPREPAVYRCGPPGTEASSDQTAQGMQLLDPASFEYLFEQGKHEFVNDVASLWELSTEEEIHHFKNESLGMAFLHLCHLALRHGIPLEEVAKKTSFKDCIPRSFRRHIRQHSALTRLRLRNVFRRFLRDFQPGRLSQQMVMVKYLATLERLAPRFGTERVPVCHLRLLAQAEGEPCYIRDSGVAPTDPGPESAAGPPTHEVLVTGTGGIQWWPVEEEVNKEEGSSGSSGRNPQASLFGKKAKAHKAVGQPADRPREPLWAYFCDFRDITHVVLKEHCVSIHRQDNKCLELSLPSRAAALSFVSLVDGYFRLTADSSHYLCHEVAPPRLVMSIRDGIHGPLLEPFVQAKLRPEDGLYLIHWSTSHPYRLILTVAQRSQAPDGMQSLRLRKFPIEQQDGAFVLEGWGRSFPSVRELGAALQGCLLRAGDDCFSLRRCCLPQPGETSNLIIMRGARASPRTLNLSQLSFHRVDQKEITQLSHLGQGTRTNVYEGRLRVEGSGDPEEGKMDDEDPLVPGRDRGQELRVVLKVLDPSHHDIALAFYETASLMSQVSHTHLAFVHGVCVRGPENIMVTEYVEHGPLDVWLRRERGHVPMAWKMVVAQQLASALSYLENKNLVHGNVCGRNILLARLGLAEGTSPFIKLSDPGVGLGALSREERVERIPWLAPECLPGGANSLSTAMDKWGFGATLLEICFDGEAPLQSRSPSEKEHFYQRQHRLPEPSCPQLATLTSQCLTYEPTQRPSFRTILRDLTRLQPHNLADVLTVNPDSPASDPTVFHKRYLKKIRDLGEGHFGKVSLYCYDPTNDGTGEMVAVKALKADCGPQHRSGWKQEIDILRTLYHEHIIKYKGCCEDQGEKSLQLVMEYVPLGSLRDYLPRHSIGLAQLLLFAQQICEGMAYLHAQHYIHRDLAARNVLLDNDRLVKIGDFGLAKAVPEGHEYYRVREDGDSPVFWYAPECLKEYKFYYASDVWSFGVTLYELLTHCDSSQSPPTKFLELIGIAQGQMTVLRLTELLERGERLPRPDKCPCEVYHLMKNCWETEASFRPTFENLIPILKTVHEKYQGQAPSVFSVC
# T8 sequence (Q08881 whole entry): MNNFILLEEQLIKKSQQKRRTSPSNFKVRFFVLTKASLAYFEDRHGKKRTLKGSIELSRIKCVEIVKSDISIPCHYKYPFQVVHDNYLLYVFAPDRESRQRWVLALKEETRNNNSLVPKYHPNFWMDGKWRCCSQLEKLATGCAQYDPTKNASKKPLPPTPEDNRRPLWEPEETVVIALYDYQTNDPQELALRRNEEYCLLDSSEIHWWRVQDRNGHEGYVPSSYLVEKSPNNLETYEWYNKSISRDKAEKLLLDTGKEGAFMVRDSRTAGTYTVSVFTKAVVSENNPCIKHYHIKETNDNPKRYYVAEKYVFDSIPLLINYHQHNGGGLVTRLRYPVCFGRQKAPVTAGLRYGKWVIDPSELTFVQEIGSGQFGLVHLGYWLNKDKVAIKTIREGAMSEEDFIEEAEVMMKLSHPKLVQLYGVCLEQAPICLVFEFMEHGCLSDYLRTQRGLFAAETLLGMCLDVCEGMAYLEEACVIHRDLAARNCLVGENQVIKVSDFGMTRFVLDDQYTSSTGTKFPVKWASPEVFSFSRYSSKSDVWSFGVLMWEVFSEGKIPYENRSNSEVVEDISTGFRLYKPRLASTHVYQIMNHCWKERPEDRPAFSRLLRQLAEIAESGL
# T11 sequence (P52333 whole entry): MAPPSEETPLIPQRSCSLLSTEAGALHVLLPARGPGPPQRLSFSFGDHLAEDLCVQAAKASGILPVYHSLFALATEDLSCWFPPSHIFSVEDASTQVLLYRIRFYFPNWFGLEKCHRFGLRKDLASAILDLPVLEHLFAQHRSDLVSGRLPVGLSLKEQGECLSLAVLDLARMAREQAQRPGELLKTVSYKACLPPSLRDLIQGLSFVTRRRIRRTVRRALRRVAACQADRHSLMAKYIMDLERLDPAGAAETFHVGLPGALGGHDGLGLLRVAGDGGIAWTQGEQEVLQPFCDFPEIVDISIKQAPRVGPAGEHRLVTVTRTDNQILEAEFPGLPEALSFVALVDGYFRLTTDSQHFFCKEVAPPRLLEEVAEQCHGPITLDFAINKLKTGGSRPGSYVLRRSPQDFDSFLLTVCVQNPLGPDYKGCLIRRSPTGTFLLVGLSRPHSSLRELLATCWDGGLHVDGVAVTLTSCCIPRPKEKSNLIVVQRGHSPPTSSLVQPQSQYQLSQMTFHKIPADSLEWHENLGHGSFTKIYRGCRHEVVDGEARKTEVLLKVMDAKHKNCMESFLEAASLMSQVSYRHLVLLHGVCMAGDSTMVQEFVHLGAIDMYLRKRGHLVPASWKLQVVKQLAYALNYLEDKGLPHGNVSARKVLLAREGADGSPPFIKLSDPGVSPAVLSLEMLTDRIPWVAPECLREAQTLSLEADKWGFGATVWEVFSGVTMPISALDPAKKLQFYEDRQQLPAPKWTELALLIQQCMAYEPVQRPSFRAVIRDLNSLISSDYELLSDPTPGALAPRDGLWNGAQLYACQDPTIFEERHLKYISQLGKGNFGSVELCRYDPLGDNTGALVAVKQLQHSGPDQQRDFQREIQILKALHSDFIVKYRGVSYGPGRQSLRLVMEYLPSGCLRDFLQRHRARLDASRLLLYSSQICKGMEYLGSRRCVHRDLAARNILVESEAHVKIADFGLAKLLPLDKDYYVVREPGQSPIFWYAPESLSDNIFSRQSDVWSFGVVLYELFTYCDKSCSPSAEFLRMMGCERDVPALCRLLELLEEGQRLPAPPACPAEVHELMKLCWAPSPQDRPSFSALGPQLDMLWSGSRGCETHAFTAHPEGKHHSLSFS
# T2 sequence (P51451 whole entry): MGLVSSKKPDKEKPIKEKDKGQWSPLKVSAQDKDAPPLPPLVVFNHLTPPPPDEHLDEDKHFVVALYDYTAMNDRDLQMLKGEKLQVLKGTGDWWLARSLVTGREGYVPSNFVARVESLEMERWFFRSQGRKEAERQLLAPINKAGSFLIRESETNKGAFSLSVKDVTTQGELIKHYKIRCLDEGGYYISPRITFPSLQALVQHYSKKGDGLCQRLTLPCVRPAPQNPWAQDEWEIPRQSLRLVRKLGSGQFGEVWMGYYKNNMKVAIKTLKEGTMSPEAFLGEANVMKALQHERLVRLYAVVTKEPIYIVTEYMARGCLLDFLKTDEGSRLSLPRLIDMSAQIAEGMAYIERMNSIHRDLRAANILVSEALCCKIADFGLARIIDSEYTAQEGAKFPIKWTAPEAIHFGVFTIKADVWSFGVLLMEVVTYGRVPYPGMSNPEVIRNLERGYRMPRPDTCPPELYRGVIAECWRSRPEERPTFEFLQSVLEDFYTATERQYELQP
# T14 sequence (P07948 whole entry): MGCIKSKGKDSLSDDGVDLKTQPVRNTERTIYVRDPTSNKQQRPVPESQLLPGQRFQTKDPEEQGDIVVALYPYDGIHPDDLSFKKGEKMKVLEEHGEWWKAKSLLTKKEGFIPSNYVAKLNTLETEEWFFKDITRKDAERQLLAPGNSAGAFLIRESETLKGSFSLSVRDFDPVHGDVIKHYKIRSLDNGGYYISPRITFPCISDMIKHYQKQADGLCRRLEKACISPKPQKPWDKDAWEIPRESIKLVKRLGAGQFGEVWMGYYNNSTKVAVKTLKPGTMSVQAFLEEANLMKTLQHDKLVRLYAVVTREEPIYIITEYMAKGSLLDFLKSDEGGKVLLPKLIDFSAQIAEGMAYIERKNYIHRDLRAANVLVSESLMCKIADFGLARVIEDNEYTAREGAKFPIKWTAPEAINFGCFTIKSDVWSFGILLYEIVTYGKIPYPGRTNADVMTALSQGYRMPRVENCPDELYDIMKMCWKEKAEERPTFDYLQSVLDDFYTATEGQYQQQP
# T22 sequence (P07947 whole entry): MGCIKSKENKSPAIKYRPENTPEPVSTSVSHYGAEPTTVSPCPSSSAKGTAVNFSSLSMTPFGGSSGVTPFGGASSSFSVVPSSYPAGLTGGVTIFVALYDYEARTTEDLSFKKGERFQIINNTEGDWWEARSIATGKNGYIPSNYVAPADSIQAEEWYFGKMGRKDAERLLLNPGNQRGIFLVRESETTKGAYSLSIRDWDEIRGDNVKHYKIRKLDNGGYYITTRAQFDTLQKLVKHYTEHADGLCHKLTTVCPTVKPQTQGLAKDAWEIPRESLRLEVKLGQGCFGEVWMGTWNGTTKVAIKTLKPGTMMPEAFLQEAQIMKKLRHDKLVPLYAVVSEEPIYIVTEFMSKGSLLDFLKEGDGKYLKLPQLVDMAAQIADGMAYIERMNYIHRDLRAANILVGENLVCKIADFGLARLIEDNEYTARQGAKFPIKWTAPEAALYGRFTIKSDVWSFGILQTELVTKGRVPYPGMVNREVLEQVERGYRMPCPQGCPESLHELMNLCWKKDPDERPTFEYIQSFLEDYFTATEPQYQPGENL
smiles,measurement,setting,value
"CN(C)CCNc1cncc(-c2ccc3c(c2)/C(=C/c2cnc[nH]2)C(=O)N3)n1 [KMU-470, (Z)-3-((1H-Imidazol-5-yl)methylene)-5-(6-((2-(dimethylamino)ethyl)amino)pyrazin-2-yl)indolin-2-one]",Activity (% Control) BTK (h),BTK (h),80 % Control
same,Activity (% Control) Blk (h),Blk (h); KMU-470 1 μM,53 % Control
same,Activity (% Control) Blk (h),Blk (h); KMU-470 10 μM,5 % Control
same,Activity (% Control) Bmx (h),Bmx (h),47 % Control
same,Activity (% Control) Csrc (h),Csrc (h),43 % Control
same,Activity (% Control) Fgr (h),Fgr (h); KMU-470 1 μM,42 % Control
same,Activity (% Control) Fgr (h),Fgr (h); KMU-470 10 μM,8 % Control
same,Activity (% Control) Fyn (h),Fyn (h); KMU-470 1 μM,97 % Control
same,Activity (% Control) Fyn (h),Fyn (h); KMU-470 10 μM,16 % Control
same,Activity (% Control) Hck (h),Hck (h),37 % Control
same,Activity (% Control) Itk (h),Itk (h); KMU-470 1 μM,75 % Control
same,Activity (% Control) Itk (h),Itk (h); KMU-470 10 μM,21 % Control
same,Activity (% Control) JAK1 (h),JAK1 (h); KMU-470 1 μM,61 % Control
same,Activity (% Control) JAK1 (h),JAK1 (h); KMU-470 10 μM,20 % Control
same,Activity (% Control) JAK2 (h),JAK2 (h); KMU-470 1 μM,107 % Control
same,Activity (% Control) JAK2 (h),JAK2 (h); KMU-470 10 μM,23 % Control
same,Activity (% Control) JAK3 (h),JAK3 (h); KMU-470 1 μM,38 % Control
same,Activity (% Control) JAK3 (h),JAK3 (h); KMU-470 10 μM,15 % Control
same,Activity (% Control) JNK1α1 (h),JNK1α1 (h),34 % Control
same,Activity (% Control) Lck (h),Lck (h); KMU-470 1 μM,41 % Control
same,Activity (% Control) Lck (h),Lck (h); KMU-470 10 μM,14 % Control
same,Activity (% Control) Lyn (h),Lyn (h); KMU-470 1 μM,30 % Control
same,Activity (% Control) Lyn (h),Lyn (h); KMU-470 10 μM,10 % Control
same,Activity (% Control) MAPK1 (h),MAPK1 (h); KMU-470 1 μM,6 % Control
same,Activity (% Control) MAPK1 (h),MAPK1 (h); KMU-470 10 μM,−18 % Control
same,Activity (% Control) Pyk2 (h),Pyk2 (h),41 % Control
same,Activity (% Control) SAPK2a (h),SAPK2a (h),77 % Control
same,Activity (% Control) Syk (h),Syk (h); KMU-470 1 μM,82 % Control
same,Activity (% Control) Syk (h),Syk (h); KMU-470 10 μM,21 % Control
same,Activity (% Control) TYK2 (h),TYK2 (h); KMU-470 1 μM,54 % Control
same,Activity (% Control) TYK2 (h),TYK2 (h); KMU-470 10 μM,14 % Control
same,Activity (% Control) Tec (h) activated,Tec (h) activated,71 % Control
same,Activity (% Control) Txk (h),Txk (h),50 % Control
same,Activity (% Control) Yes (h),Yes (h); KMU-470 1 μM,22 % Control
same,Activity (% Control) Yes (h),Yes (h); KMU-470 10 μM,−3 % Control
same,Activity (% Control) ZAP-70 (h),ZAP-70 (h),100 % Control
same,Toxicity in RAW 264.7 cells,RAW 264.7 cells,no toxicity
